Experimental data: patent US8617906B2, “Identification and screening of triptolide target molecules” (priority 2004, dated 2013)

Key:
[1] = target: T1, Eukaryotic Translation Elongation Factor 2 (EEF2) (PG786) (Homo sapiens, UniProt P13639); assay: Isolation of proteins binding 3H-triptolide in Jurkat cells; conditions: 3H-labeled Jurkat cell extract
T1 construct: endogenous in cells; host or cells: Jurkat
Method: (§1) Triptolide target molecules were isolated and identified by purification and identification of molecules that bind ^3H-triptolide. Jurkat cells from expanding cultures were labeled with ^3H-triptolide by cultivation at 37° C. with 5% CO2 for a period of time between a few hours and overnight (usually 6-7 hours) and harvested by centrifugation and washing in ice-cold phosphate buffered saline. The cells (usually 1-3×10^6/ml) were generally labeled with ^3H-triptolide to a final concentration of 35 nM (100 μCi/200 ml of medium). Collected cell pellets were pooled, and the cells were either extracted and subjected to separation and purification at that time, or were frozen and stored at −20° C. as pellets for extraction and investigation at a later time.
(§2) The cells were extracted with M-per buffer (Pierce) and homogenized in presence of a protease inhibitor cocktail, sometimes including other reagents such as deoxyribonuclease (DNase). […] When the extracts components were found not to be sufficiently purified, enriched or reduced in number, 2D gel electrophoresis was employed, followed by fluorography for ^3H-associated radioactivity detection, and MALDI/MS of the corresponding peptides (after proteolysis) and peptide fingerprinting. […]

[2] = target: T2, hypothetical protein FLJ20297 (PG777) (Homo sapiens, UniProt Q9NXE4); assay: as above; conditions: 3H-labeled Jurkat cell extract
T2 construct: endogenous in cells; host or cells: Jurkat
Method: as §1, §2

[3] = tested on: p53 pathway; conditions: cited from earlier work
[4] = tested on: microglia; conditions: cited from earlier work
[5] = tested on: Phosphatidyl Inositol 3 Kinase—Class II (PG776); assay: Isolation of proteins binding 3H-triptolide in Jurkat cells; parameters: species or system human; conditions: 3H-labeled Jurkat cell extract
Method: as §1, §2

[6] = tested on: IL-2; conditions: cited from earlier work
[7] = tested on: dopaminergic neurons; conditions: cited from earlier work
[8] = tested on: Hypothetical Protein (GI 14758649), similar to heat shock protein (90 kDa) beta (PG787); assay: Isolation of proteins binding 3H-triptolide in Jurkat cells; parameters: species or system human; conditions: 3H-labeled Jurkat cell extract
Method: as §1, §2

[9] = tested on: NF-κB; conditions: cited from earlier work
[10] = tested on: PC12 cells; conditions: cited from earlier work
[11] = tested on: T3, Hypothetical Protein (GI 11277141), superfamily HSP 90 (PG788) (Homo sapiens); assay: Isolation of proteins binding 3H-triptolide in Jurkat cells; conditions: 3H-labeled Jurkat cell extract
T3 construct: endogenous in cells; host or cells: Jurkat
Method: as §1, §2

T2 sequence (Q9NXE4 whole entry): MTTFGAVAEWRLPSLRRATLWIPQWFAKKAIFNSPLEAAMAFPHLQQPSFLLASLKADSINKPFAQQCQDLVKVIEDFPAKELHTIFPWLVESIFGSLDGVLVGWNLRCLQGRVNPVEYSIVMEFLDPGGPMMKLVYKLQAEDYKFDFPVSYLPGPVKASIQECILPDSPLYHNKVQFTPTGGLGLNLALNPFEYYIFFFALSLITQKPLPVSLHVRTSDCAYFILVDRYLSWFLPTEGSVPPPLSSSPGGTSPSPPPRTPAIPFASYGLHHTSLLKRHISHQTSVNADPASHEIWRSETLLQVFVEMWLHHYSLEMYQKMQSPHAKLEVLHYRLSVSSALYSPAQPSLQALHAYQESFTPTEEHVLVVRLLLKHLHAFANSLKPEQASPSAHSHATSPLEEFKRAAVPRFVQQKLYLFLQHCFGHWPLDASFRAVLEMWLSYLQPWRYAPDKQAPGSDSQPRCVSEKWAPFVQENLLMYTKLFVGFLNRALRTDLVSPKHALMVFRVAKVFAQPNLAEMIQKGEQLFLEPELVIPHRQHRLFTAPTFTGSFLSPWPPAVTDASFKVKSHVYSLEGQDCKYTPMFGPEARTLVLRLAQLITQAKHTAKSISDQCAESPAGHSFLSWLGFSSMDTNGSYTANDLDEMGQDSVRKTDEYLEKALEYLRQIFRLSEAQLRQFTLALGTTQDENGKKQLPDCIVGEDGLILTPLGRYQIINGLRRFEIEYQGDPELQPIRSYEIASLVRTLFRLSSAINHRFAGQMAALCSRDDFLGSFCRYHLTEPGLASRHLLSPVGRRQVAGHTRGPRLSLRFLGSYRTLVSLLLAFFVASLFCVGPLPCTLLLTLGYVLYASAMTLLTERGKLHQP
T3 sequence (P08238 2-724 limits assumed): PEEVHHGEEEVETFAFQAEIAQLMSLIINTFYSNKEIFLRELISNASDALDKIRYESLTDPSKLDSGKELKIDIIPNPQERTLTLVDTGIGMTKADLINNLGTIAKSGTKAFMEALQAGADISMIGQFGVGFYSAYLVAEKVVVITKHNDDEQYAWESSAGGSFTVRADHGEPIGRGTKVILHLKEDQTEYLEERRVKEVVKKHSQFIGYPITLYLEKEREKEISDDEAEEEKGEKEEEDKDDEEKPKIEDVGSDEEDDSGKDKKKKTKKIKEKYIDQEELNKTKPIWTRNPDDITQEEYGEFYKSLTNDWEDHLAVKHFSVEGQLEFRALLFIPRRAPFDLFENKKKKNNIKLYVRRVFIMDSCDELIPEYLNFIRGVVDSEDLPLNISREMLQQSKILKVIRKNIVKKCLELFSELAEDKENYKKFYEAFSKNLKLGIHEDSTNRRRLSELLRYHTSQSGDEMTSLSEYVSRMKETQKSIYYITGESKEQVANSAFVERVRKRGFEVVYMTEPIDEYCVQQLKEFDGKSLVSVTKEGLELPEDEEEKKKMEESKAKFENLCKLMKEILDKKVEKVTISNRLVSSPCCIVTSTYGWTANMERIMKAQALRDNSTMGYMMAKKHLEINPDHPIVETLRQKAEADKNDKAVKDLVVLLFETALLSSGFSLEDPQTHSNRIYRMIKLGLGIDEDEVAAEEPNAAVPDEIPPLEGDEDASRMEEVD

CC(C)[C@]12O[C@H]1[C@@H]1O[C@]13[C@]1(O[C@H]1C[C@H]1C4=C(CC[C@@]13C)C(=O)OC4)[C@@H]2O [triptolide]
3H-associated protein identified as triptolide target: EEF2 [1]: identified
3H-associated protein identified as triptolide target: FLJ20297 [2]: identification
cell cycle arrest induced by p21 after p53 activation [3]: inhibiting the cell cycle arrest induced by p21 after p53 activation
LPS-activated microglial activity (nitrite accumulation, TNF-α and IL-1β release) [4]: powerful inhibitory influence
3H-associated protein identified as triptolide target: PI 3 Kinase Class II [5]: identification
inhibition of IL-2 [6]: inhibition of IL-2
LPS-induced decrease in 3H-dopamine uptake and loss of tyrosine hydroxylase-positive neurons [7]: attenuates
3H-associated protein identified as triptolide target: GI 14758649 [8]: identified
NF-κB activation [9]: inhibit NF-κB activation
β-amyloid-induced apoptosis [10]: markedly inhibit β-amyloid-induced apoptosis
β-amyloid-induced increase of intracellular Ca2+ concentration [10]: inhibit the increase of intracellular Ca^2+ concentration induced by β-amyloid
3H-associated protein identified as triptolide target: GI 11277141 [11]: identified
